Data reported in article PMC6915135, “Simultaneous Quantification of Brigatinib and Brigatinib-Analog in Rat Plasma and Brain Homogenate by LC-MS/MS: Application to Comparative Pharmacokinetic and Brain Distribution Studies” (International Journal of Analytical Chemistry, 2019).

How the values were obtained:
[1] = Pharmacokinetic study in rats after single oral administration (plasma, LC-MS/MS); format: in vivo, male Sprague Dawley rats; details: 5 mg/kg single oral, male SD rats, mean ± SD; for Vd (apparent volume of distribution) / AUC(0-t) / Cmax / MRT / Tmax / half-life: n = 6; for AUC(0-t) / Cmax / MRT / Tmax / half-life / CL/F: Sprague Dawley, rat; for CL/F: n = 6, read-out: CL (CLz/F)
Procedure: (§1) Seventy-two male Sprague Dawley rats weighing 180–220 g (7-8 weeks old, Certificate no. SCXK (Shandong) 2014-0007) were supplied by Shandong Laboratory Animal Center, Shandong First Medical University & Shandong Academy of Medical Sciences. All rats were kept in plastic cages with 12 h day/night cycle under controlled temperature (about 23–25°C) and fed with standard laboratory rat diet and water ad libitum. All the animal welfare and experimental procedures were approved by the Animal Ethics Committee at the Institute of Materia Medica, Shandong First Medical University & Shandong Academy of Medical Sciences (Jinan, China) and strictly in accordance with the guide for the care and use of laboratory animals (National Research Council of USA, 1996).
For the pharmacokinetic studies, after fasting with free access to water for at least 12 h, twelve rats were randomly divided into two groups (n = 6). The brigatinib and brigatinib-analog were both dissolved in ethanol-0.5% methylcellulose (1 : 19) for dosing. The two group rats were intragastrically administered with brigatinib and brigatinib-analog at the same dose of 5 mg/kg, respectively.
Blood samples, about 100 μL of each, were placed in heparinized Eppendorf tubes predose and at 5, 15, 30, 60, 120, 180, 240, 300, 360, 480, 720, and 1,440 min postdose from the jugular vein of rats. The blood samples were immediately centrifuged at 3,500 rpm for 15 min at 4°C, and the plasma samples were transferred carefully from each collection and stored at −20°C until analysis.
(§2) Experimental data were expressed as mean ± standard deviation (SD). Drug and Statistics 2.0 (DAS 2.0) software package (Mathematical Pharmacology Professional Committee of China, Shanghai, China) was used for estimating pharmacokinetic and brain distribution parameters by a noncompartmental method. Statistical analyses were performed with statistical software IBM SPSS Statistics 20.0 (IBM Corporation, Armonk, NY, USA). Differences between two groups were evaluated by the t-test. A value of p < 0.05 was considered as statistically significant.

[2] = Stability of QC samples in rat plasma under various storage conditions; format: in vitro ADME; details: for Stability under the storage conditions investigated: rat plasma and brain homogenate QC samples, 6 h ambient, −20°C 10 d, three freeze-thaw cycles, 24 h at 4°C autosampler; for Measured conc. after ambient temperature for 6 h / Measured conc. after autosampler at 4°C for 24 h / Measured conc. after three freeze-thaw cycles / Measured conc. after −20°C for 10 d: rat plasma, n = 6
Procedure: (§3) The stability of brigatinib and brigatinib-analog was evaluated by analysis of low and high concentration levels of QC samples under different conditions (n = 6). The temperature and timing conditions were as follows: 6 h at ambient temperature, stored at −20°C for 10 d, three freeze-thaw cycles, and 24 h at 4°C in an autosampler. The measured concentrations were all within acceptable limits (±15% of the nominal concentrations) during the entire validation. […] Carryover was evaluated by determining the peak areas for brigatinib and brigatinib-analog by injecting blank matrix samples sequentially after the highest calibration standard sample injection. Furthermore, no carryover effect was obtained in this study.

the triple mutation = tested on: the triple mutation; set-up: method as in PMID 28287083, PMID 27780853; details: read-out: IC50 against the triple mutation; cited from earlier work
[3] = Stability of QC samples in rat brain homogenate under various storage conditions; format: in vitro ADME; details: n = 6
Procedure: as §3

[4] = Brain distribution study in rats after single oral administration (brain homogenate, LC-MS/MS); format: in vivo, male Sprague Dawley rats; details: for blood-brain barrier penetration / Kp: 5 mg/kg oral, rats; for Cmax / MRT / Tmax / half-life / Kp: Sprague Dawley, rat; for Cmax / MRT / Tmax / half-life / AUC(0–t): brain, 5 mg/kg single oral, male SD rats, mean ± SD, n = 6; for Kp: male, average AUC(0–t) brain to plasma, 1 g brain taken as 1 mL plasma, read-out: ratio of AUCbrain/AUCplasma
Procedure: as §1
For the brain distribution studies, the remaining sixty rats were randomly divided into ten groups (n = 6, per group). The distributions of brigatinib and brigatinib-analog in the rat brain were also investigated at the dose of 5 mg/kg after single oral administration to rats. The whole brain was excised immediately at 5, 60, 240, 480, and 1,440 min postdose, thoroughly rinsed with 0.9% saline solution, and wiped with a filter paper. Each brain sample was weighed accurately and homogenized in double distilled water (1 : 5, w/v) by using a tissue homogenizer (IKA, Germany) and frozen at −20°C until analysis.
as §2

Structure (SMILES) | Vd (apparent volume of distribution) [1] | AUC(0-t) [1] | Cmax [1] | MRT [1] | Tmax [1] | half-life [1] | CL/F [1] | Stability under the storage conditions investigated [2] | Measured conc. after ambient temperature for 6 h ([2]; spiked 2.0 ng/mL) | Measured conc. after autosampler at 4°C for 24 h ([2]; spiked 2.0 ng/mL) | Measured conc. after three freeze-thaw cycles ([2]; spiked 2.0 ng/mL) | Measured conc. after −20°C for 10 d ([2]; spiked 2.0 ng/mL) | Measured conc. after ambient temperature for 6 h ([2]; spiked 1600 ng/mL) | Measured conc. after autosampler at 4°C for 24 h ([2]; spiked 1600 ng/mL) | Measured conc. after three freeze-thaw cycles ([2]; spiked 1600 ng/mL) | Measured conc. after −20°C for 10 d ([2]; spiked 1600 ng/mL) | IC50 (the triple mutation) | Measured conc. after ambient temperature for 6 h ([3]; spiked 1.0 ng/mL) | Measured conc. after autosampler at 4°C for 24 h ([3]; spiked 1.0 ng/mL) | Measured conc. after three freeze-thaw cycles ([3]; spiked 1.0 ng/mL) | also measured
COc1cc(N2CCC(N(C)C)CC2)ccc1Nc1ncc(Cl)c(Nc2ccccc2P(C)(C)=O)n1 [Brigatinib-analog] | 3.43 ± 0.96 L/kg | 4370 ng·h/mL | 734 ± 83.1 ng/mL | 5.48 h | 4.33 h | 2.01 ± 0.496 h | 21 ± 6 mL/min/kg | stable | 2.03 ± 0.11 ng/mL | 1.89 ± 0.12 ng/mL | 2.01 ± 0.09 ng/mL | 1.95 ± 0.12 ng/mL | 1638.54 ± 97.76 ng/mL | 1582.61 ± 101.88 ng/mL | 1578.36 ± 125.20 ng/mL | 1705.49 ± 109.83 ng/mL | < 100 nM | 1.04 ± 0.05 ng/mL | 0.97 ± 0.06 ng/mL | 0.98 ± 0.07 ng/mL | Measured conc. after −20°C for 10 d ([3]; spiked 1.0 ng/mL): 1.07 ± 0.11 ng/mL; Measured conc. after ambient temperature for 6 h ([3]; spiked 800 ng/mL): 828.64 ± 66.54 ng/mL; Measured conc. after autosampler at 4°C for 24 h ([3]; spiked 800 ng/mL): 783.28 ± 32.39 ng/mL; Measured conc. after three freeze-thaw cycles ([3]; spiked 800 ng/mL): 833.68 ± 56.59 ng/mL; Measured conc. after −20°C for 10 d ([3]; spiked 800 ng/mL): 846.09 ± 53.83 ng/mL; blood-brain barrier penetration [4]: could both penetrate the blood-brain barrier; Cmax [4]: 45.8 ± 11.8 ng/g; MRT [4]: 6.32 h; Tmax [4]: 4 h; half-life [4]: 4.27 ± 0.667 h; AUC(0–t) [4]: 23196.08 ± 4932.95^∗ ng/g·min; Kp [4]: 0.088
COc1cc(N2CCC(N3CCN(C)CC3)CC2)ccc1Nc1ncc(Cl)c(Nc2ccccc2P(C)(C)=O)n1 [Brigatinib] | 5.66 ± 1.94 L/kg | 4360 ng·h/mL | 538 ± 186 ng/mL | 6.73 h | 4.33 h | 3.16 ± 0.343 h | 22 ± 10 mL/min/kg | stable | 2.10 ± 0.12 ng/mL | 1.90 ± 0.10 ng/mL | 1.94 ± 0.09 ng/mL | 2.05 ± 0.17 ng/mL | 1585.06 ± 98.31 ng/mL | 1645.17 ± 118.52 ng/mL | 1678.34 ± 95.87 ng/mL | 1719.73 ± 107.09 ng/mL | < 100 nM | 1.06 ± 0.08 ng/mL | 0.96 ± 0.05 ng/mL | 1.02 ± 0.06 ng/mL | Measured conc. after −20°C for 10 d ([3]; spiked 1.0 ng/mL): 0.97 ± 0.06 ng/mL; Measured conc. after ambient temperature for 6 h ([3]; spiked 800 ng/mL): 788.85 ± 69.25 ng/mL; Measured conc. after autosampler at 4°C for 24 h ([3]; spiked 800 ng/mL): 813.16 ± 72.23 ng/mL; Measured conc. after three freeze-thaw cycles ([3]; spiked 800 ng/mL): 847.44 ± 57.65 ng/mL; Measured conc. after −20°C for 10 d ([3]; spiked 800 ng/mL): 760.29 ± 48.33 ng/mL; blood-brain barrier penetration [4]: could both penetrate the blood-brain barrier; Cmax [4]: 68.9 ± 21.6 ng/g; MRT [4]: 7.48 h; Tmax [4]: 5.5 h; half-life [4]: 5.32 ± 1.95 h; AUC(0–t) [4]: 58255.81 ± 13725.10 ng·min/g; Kp [4]: 0.223
